According to ChEMBL document CHEMBL2057122, “Synthesis and positive inotropic evaluation of N-(1-oxo-1,2,4,5-tetrahydro-[1,2,4]triazolo[4,3-a]quinolin-7-yl)acetamides bearing piperazine and 1,4-diazepane moieties” (Bioorg Med Chem Lett, 2012):
Calls of active or inactive are those of the source. The calls are words filed in the database; no cut-off is given here.

Assays:
Oryctolagus cuniculus [1] = species on record: Oryctolagus cuniculus; test: Positive inotropic effect in New Zealand White rabbit beating left atrium assessed as increase in stroke volume at 30 uM/L by electrocardiogram analysis; type: functional, tissue-based; conditions: Cardiac atrium
Oryctolagus cuniculus [2] = species on record: Oryctolagus cuniculus; test: Positive inotropic effect in New Zealand White rabbit left atrium assessed as increase in stroke volume at 1 X 10^-4 M by electrocardiogram analysis; type: functional, tissue-based; conditions: Cardiac atrium
[3] = (§1) Positive inotropic effect in New Zealand White rabbit left atrium assessed as increase in stroke volume at 3 X 10^-5 M by electrocardiogram analysis; type: functional, Oryctolagus cuniculus, Cardiac atrium
[4] = Chronotropic effect in New Zealand White rabbit left atrium assessed as change in heart rate by electrocardiogram analysis relative to control; type: tissue-based, Oryctolagus cuniculus, Cardiac atrium
Oryctolagus cuniculus [5] = species on record: Oryctolagus cuniculus; test: as §1; type: functional; conditions: Cardiac atrium

| SMILES | Activity (Oryctolagus cuniculus [1]) | Activity (Oryctolagus cuniculus [2]) | Activity [3] [%] | Activity [4] [bpm] | Activity (Oryctolagus cuniculus [5]) |
| --- | --- | --- | --- | --- | --- |
| O=C(CN1CCCN(Cc2ccc(Cl)cc2)CC1)Nc1ccc2c(c1)CCc1n[nH]c(=O)n1-2 | inactive | inactive | 15.48 | 121.68 |  |
| Cc1[nH]c(=O)c(C#N)cc1-c1ccncc1 [MILRINONE] | inactive |  | 2.46 |  |  |
| O=C(CN1CCN(Cc2ccc(Br)cc2)CC1)Nc1ccc2c(c1)CCc1n[nH]c(=O)n1-2 |  |  |  |  | inactive |
| O=C(CN1CCN(Cc2ccccc2)CC1)Nc1ccc2c(c1)CCc1n[nH]c(=O)n1-2 | inactive |  | 3.56 |  |  |
| O=C(CN1CCN(Cc2c(Cl)cccc2Cl)CC1)Nc1ccc2c(c1)CCc1n[nH]c(=O)n1-2 |  |  |  |  | inactive |
| O=C(CN1CCN(Cc2cccc(Cl)c2)CC1)Nc1ccc2c(c1)CCc1n[nH]c(=O)n1-2 | inactive |  | 3.46 |  |  |
| O=C(CN1CCCN(Cc2cccc(Cl)c2)CC1)Nc1ccc2c(c1)CCc1n[nH]c(=O)n1-2 | inactive |  | 6.41 | 120.84 |  |
| O=C(CN1CCCN(Cc2ccccc2)CC1)Nc1ccc2c(c1)CCc1n[nH]c(=O)n1-2 | inactive |  | 9.07 | 90.01 |  |
| COc1ccc(CN2CCN(CC(=O)Nc3ccc4c(c3)CCc3n[nH]c(=O)n3-4)CC2)cc1 |  |  | 1.46 |  |  |
| O=C(CN1CCCN(Cc2ccccc2Cl)CC1)Nc1ccc2c(c1)CCc1n[nH]c(=O)n1-2 | inactive |  | 8.98 | 118.36 |  |
| O=C(CN1CCN(Cc2cccc(F)c2)CC1)Nc1ccc2c(c1)CCc1n[nH]c(=O)n1-2 |  |  |  |  | inactive |
| Cc1ccc(CN2CCN(CC(=O)Nc3ccc4c(c3)CCc3n[nH]c(=O)n3-4)CC2)cc1 | inactive |  | 5.48 |  |  |
| O=C(CN1CCN(C/C=C/c2ccccc2)CC1)Nc1ccc2c(c1)CCc1n[nH]c(=O)n1-2 | inactive | inactive | 9.4 | 99.89 |  |
| O=C(CN1CCN(Cc2ccccc2F)CC1)Nc1ccc2c(c1)CCc1n[nH]c(=O)n1-2 |  |  | 1.82 |  |  |
| O=C(CN1CCN(Cc2ccccc2Cl)CC1)Nc1ccc2c(c1)CCc1n[nH]c(=O)n1-2 | inactive |  | 4.01 |  |  |
| Cc1ccc(CN2CCCN(CC(=O)Nc3ccc4c(c3)CCc3n[nH]c(=O)n3-4)CC2)cc1 | inactive |  | 6.75 | 111.86 |  |
| O=C(CN1CCN(Cc2cccc(Br)c2)CC1)Nc1ccc2c(c1)CCc1n[nH]c(=O)n1-2 |  |  |  |  | inactive |
| O=C(CN1CCN(Cc2ccccc2Br)CC1)Nc1ccc2c(c1)CCc1n[nH]c(=O)n1-2 |  |  |  |  | inactive |
| O=C(CN1CCN(Cc2ccc(F)cc2)CC1)Nc1ccc2c(c1)CCc1n[nH]c(=O)n1-2 |  |  |  |  | inactive |
| O=C(CN1CCN(Cc2ccc(Cl)cc2)CC1)Nc1ccc2c(c1)CCc1n[nH]c(=O)n1-2 | inactive |  | 3.09 |  |  |
| COc1cc(CN2CCN(CC(=O)Nc3ccc4c(c3)CCc3n[nH]c(=O)n3-4)CC2)ccc1OCc1ccc(Cl)cc1 |  |  | 2.22 |  |  |
| COc1cc(CN2CCN(CC(=O)Nc3ccc4c(c3)CCc3n[nH]c(=O)n3-4)CC2)ccc1OCc1ccccc1 |  |  | 2.26 |  |  |
